Laboratory results published in PubChem BioAssay AID200 (DTP/NCI, 2004).
“And” between values parts separate entries of the source, which are not always exact repeats. Equal entries are not always repeated. Toxic doses and inconclusive results are not listed. Rule for the calls: active = survival T/C of 150% or more; inactive = T/C below 125% in these data.

System: B6C3F1 mice, B16 melanoma ip, median survival T/C
Test: NCI In Vivo Anticancer Drug Screen. Data for tumor model B16 Melanoma (intraperitoneal) in B6C3F1 mice
Settings: endpoint: median survival time, higher = longer survival
How it was run: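 Readout: survival or tumor size in treated mice relative to vehicle controls (T/C). Model uses transplantable tumors grown in mice.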

[1] = dose: 12.5 mg/kg/injection, schedule: Q01DX009 (ip), vehicle: saline with Tween-80
[2] = dose: 25.0 mg/kg/injection, schedule: Q01DX009 (ip), vehicle: saline with Tween-80
[3] = dose: 50.0 mg/kg/injection, schedule: Q01DX009 (ip), vehicle: saline with Tween-80
[4] = dose: 100.0 mg/kg/injection, schedule: Q01DX009 (ip), vehicle: saline with Tween-80
[5] = dose: 200.0 mg/kg/injection, schedule: Q01DX009 (ip), vehicle: saline with Tween-80
[6] = dose: 6.25 mg/kg/injection, schedule: Q01DX009 (ip), vehicle: Klucel (hydroxypropylcellulose) (HPC)
[7] = dose: 12.5 mg/kg/injection, schedule: Q01DX009 (ip), vehicle: Klucel (hydroxypropylcellulose) (HPC)
[8] = dose: 25.0 mg/kg/injection, schedule: Q01DX009 (ip), vehicle: Klucel (hydroxypropylcellulose) (HPC)
[9] = dose: 0.25 mg/kg/injection, schedule: Q01DX009 (ip), vehicle: Klucel (hydroxypropylcellulose) (HPC)
[10] = dose: 0.5 mg/kg/injection, schedule: Q01DX009 (ip), vehicle: Klucel (hydroxypropylcellulose) (HPC)
[11] = dose: 12.5 mg/kg/injection, schedule: Q01DX009 (ip), vehicle: saline
[12] = dose: 25.0 mg/kg/injection, schedule: Q01DX009 (ip), vehicle: saline
[13] = dose: 50.0 mg/kg/injection, schedule: Q01DX009 (ip), vehicle: saline
[14] = dose: 50.0 mg/kg/injection, schedule: Q01DX009 (ip), vehicle: Klucel (hydroxypropylcellulose) (HPC)

Measured: T/C

O=C1c2ccccc2CCC1Cl (centres undefined)
inactive: dose: 1.5 mg/kg/injection, schedule: Q01DX009 (ip), vehicle: DMSO 87 % of control | dose: 3.0 mg/kg/injection, schedule: Q01DX009 (ip), vehicle: DMSO 86 % of control and 87 % of control and 88 % of control | dose: 12.0 mg/kg/injection, schedule: Q01DX009 (ip), vehicle: DMSO 89 % of control | dose: 1.2 micrograms/kg/injection, schedule: Q01DX009 (ip), vehicle: DMSO 91 % of control | dose: 2.5 micrograms/kg/injection, schedule: Q01DX009 (ip), vehicle: DMSO 86 % of control | dose: 5.0 micrograms/kg/injection, schedule: Q01DX009 (ip), vehicle: DMSO 87 % of control | dose: 10.0 micrograms/kg/injection, schedule: Q01DX009 (ip), vehicle: DMSO 88 % of control

COC1=CC(=O)C(OC)=C(OC)C1=O
inactive: dose: 3.12 mg/kg/injection, schedule: Q01DX009 (ip), vehicle: saline with Tween-80 97 % of control | dose: 6.25 mg/kg/injection, schedule: Q01DX009 (ip), vehicle: saline with Tween-80 92 % of control | [1] 99 % of control

C=C(C)[C@]12CC(C)C34OC(/C=C\C=C\CCCCCCCCC)(O[C@@H]1[C@@H]3[C@@H]1O[C@]1(CO)[C@@H](O)[C@]1(O)C(=O)C(C)=C[C@@H]41)O2 (some centres undefined)
inactive: dose: 0.09 mg/kg/injection, schedule: Q01DX009 (ip), vehicle: distilled water + alcohol 110 % of control | dose: 0.18 mg/kg/injection, schedule: Q01DX009 (ip), vehicle: distilled water + alcohol 110 % of control | dose: 0.37 mg/kg/injection, schedule: Q01DX009 (ip), vehicle: distilled water + alcohol 104 % of control

C=CCNc1nc2c(s1)CCc1cc(OC)c(OC)cc1-2
inactive: [1] 103 % of control | [2] 116 % of control | [3] 107 % of control | [4] 100 % of control | [5] 103 % of control | dose: 400.0 mg/kg/injection, schedule: Q01DX009 (ip), vehicle: saline with Tween-80 103 % of control

O=C(Nc1ccc(N=C=S)cc1Cl)c1cc(Cl)cc(Cl)c1O
inactive: [6] 107 % of control | [7] 98 % of control | [8] 116 % of control

O=C1NC(O)c2ccccc2O1 (centres undefined)
inactive: [1] 99 % of control | dose: 12.5 mg/kg/injection, schedule: Q01DX009 (ip), vehicle: suspension in saline 101 % of control | [2] 103 % of control | dose: 25.0 mg/kg/injection, schedule: Q01DX009 (ip), vehicle: suspension in saline 103 % of control | [3] 103 % of control | dose: 50.0 mg/kg/injection, schedule: Q01DX009 (ip), vehicle: suspension in saline 101 % of control | [4] 106 % of control | dose: 100.0 mg/kg/injection, schedule: Q01DX009 (ip), vehicle: suspension in saline 98 % of control | [5] 114 % of control | dose: 200.0 mg/kg/injection, schedule: Q01DX009 (ip), vehicle: suspension in saline 100 % of control | dose: 400.0 mg/kg/injection, schedule: Q01DX009 (ip), vehicle: suspension in saline 95 % of control

COc1cc(C(=O)N/N=C/c2cccc([N+](=O)[O-])c2)cc(OC)c1OC
inactive: [1] 88 % of control | [2] 90 % of control

CCCC[C@H]1C(=O)O[C@H](C)[C@H](NC(=O)c2cccc(NC=O)c2O)C(=O)O[C@@H](C)[C@@H]1OC(=O)CC(C)C
inactive: dose: 0.12 mg/kg/injection, schedule: Q01DX009 (ip), vehicle: Klucel (hydroxypropylcellulose) (HPC) 96 % of control | [9] 96 % of control | [10] 91 % of control and 98 % of control

C/C1=C/C(C)C(O)C(O)C(=O)C2(C)CNC3=C(O2)C(=O)c2c(cc(C)c(O)c2C1=O)C3=O (centres undefined)
inactive: dose: 4.0 mg/kg/injection, schedule: Q01DX009 (ip), vehicle: distilled water + Tween-80 103 % of control | dose: 8.0 mg/kg/injection, schedule: Q01DX009 (ip), vehicle: distilled water + Tween-80 100 % of control | dose: 16.0 mg/kg/injection, schedule: Q01DX009 (ip), vehicle: distilled water + Tween-80 105 % of control | dose: 32.0 mg/kg/injection, schedule: Q01DX009 (ip), vehicle: distilled water + Tween-80 103 % of control

COC(=O)NC1C(C)OC(OC2C/C=C(/C)C3C=CC4C(OC5CC(OC6CC(OC7CC(O)C(O)C(C)O7)C(OC7CC(O)C(OC)C(C)O7)C(C)O6)C(O)C(C)O5)C(C)CC(C)C4C3(C)/C(O)=C3\C(=O)OC4(CC(C)C(CO)=CC4/C=C\2C)C3=O)CC1(C)[N+](=O)[O-] (centres undefined)
inactive: dose: 6.25 mg/kg/injection, schedule: Q01DX009 (ip), vehicle: water 117 % of control and 100 % of control | dose: 12.5 mg/kg/injection, schedule: Q01DX009 (ip), vehicle: water 108 % of control and 122 % of control | dose: 12.5 mg/kg/injection, schedule: Q01DX009 (sc), vehicle: water 92 % of control | dose: 25.0 mg/kg/injection, schedule: Q01DX009 (ip), vehicle: water 116 % of control | dose: 25.0 mg/kg/injection, schedule: Q01DX009 (sc), vehicle: water 91 % of control | dose: 50.0 mg/kg/injection, schedule: Q01DX009 (sc), vehicle: water 113 % of control | dose: 100.0 mg/kg/injection, schedule: Q01DX009 (sc), vehicle: water 89 % of control | dose: 200.0 mg/kg/injection, schedule: Q01DX009 (sc), vehicle: water 98 % of control

CC1=C2C(=CO[C@H](C)[C@H]2C)C(=O)C(C(=O)O)=C1O
inactive: [6] 105 % of control | dose: 6.25 mg/kg/injection, schedule: Q01DX009 (ip), vehicle: saline 108 % of control | [7] 102 % of control | [11] 100 % of control | [12] 100 % of control | [13] 98 % of control

COC(=O)NC1C(C)OC(OC2C/C=C(/C)C3C=CC4C(OC5CC(OC6CC(O)C(OC7CC(O)C(OC)C(C)O7)C(C)O6)C(O)C(C)O5)C(C)CC(C)C4C3(C)/C(O)=C3\C(=O)OC4(CC(C)C(CO)=CC4/C=C\2C)C3=O)CC1(C)[N+](=O)[O-] (centres undefined)
inactive: [7] 100 % of control and 104 % of control | [8] 110 % of control and 106 % of control | [14] 121 % of control

COc1ccc2c(c1)/C(=C/CCN(C)C)c1ccccc1S2
inactive: [11] 101 % of control | [12] 101 % of control | [13] 101 % of control

Cc1cc2nc(Cc3nc4cc(C)c(C)cc4[nH]3)[nH]c2cc1C
inactive: [3] 94 % of control | [4] 93 % of control | [5] 88 % of control

CC(NC(=O)c1ccccc1)C(=O)O (centres undefined)
inactive: dose: 40.0 mg/kg/injection, schedule: Q01DX009 (ip), vehicle: saline with Tween-80 97 % of control | dose: 80.0 mg/kg/injection, schedule: Q01DX009 (ip), vehicle: saline with Tween-80 90 % of control

O=C1C=C2C(=CCOC2O)O1 (centres undefined)
inactive: [9] 95 % of control and 97 % of control | [10] 94 % of control and 98 % of control | dose: 1.0 mg/kg/injection, schedule: Q01DX009 (ip), vehicle: Klucel (hydroxypropylcellulose) (HPC) 99 % of control and 100 % of control | dose: 2.0 mg/kg/injection, schedule: Q01DX009 (ip), vehicle: Klucel (hydroxypropylcellulose) (HPC) 97 % of control | dose: 4.0 mg/kg/injection, schedule: Q01DX009 (ip), vehicle: Klucel (hydroxypropylcellulose) (HPC) 91 % of control

CN1N=C(N)c2cn(C3OC(COP(=O)(O)O)C(O)C3O)c3ncnc1c23 (centres undefined)
inactive: dose: 12.0 mg/kg/injection, schedule: Q01DX009 (ip), vehicle: Klucel (hydroxypropylcellulose) (HPC) 93 % of control | [8] 93 % of control | [14] 96 % of control | dose: 100.0 mg/kg/injection, schedule: Q01DX009 (ip), vehicle: Klucel (hydroxypropylcellulose) (HPC) 91 % of control

CCSCCNC(=O)[C@@]1(O)[C@H](O)[C@]2(CC)C=CCN3CC[C@@]4(c5cc([C@@]6(OC(C)=O)C[C@H]7C=C(CC)CN(CCc8c6[nH]c6ccccc86)C7)c(OC)cc5N(C)[C@@H]14)[C@@H]32
active: dose: 0.5 mg/kg/injection, schedule: Q01DX009 (ip), vehicle: water 164 % of control

COc1cc(NS(C)(=O)=O)ccc1Nc1c2ccc(Cl)cc2nc2c(OC)cccc12
active: dose: 2.0 mg/kg/injection, schedule: Q01DX005 (ip), vehicle: water 165 % of control | dose: 4.0 mg/kg/injection, schedule: Q01DX005 (ip), vehicle: water 174 % of control | dose: 8.0 mg/kg/injection, schedule: Q01DX005 (ip), vehicle: water 178 % of control
inactive: dose: 2.0 mg/kg/injection, schedule: Q01DX005 (iv), vehicle: water 111 % of control | dose: 4.0 mg/kg/injection, schedule: Q01DX001 (iv), vehicle: water 101 % of control | dose: 8.0 mg/kg/injection, schedule: Q01DX001 (iv), vehicle: water 102 % of control | dose: 16.0 mg/kg/injection, schedule: Q01DX001 (iv), vehicle: water 100 % of control
